Source: US12459974B2, “Bicyclic peptide ligands specific for Nectin-4” (priority 2018, dated 2025)
Where two headings read alike, the source gives them in different places. *1 amine or outer side, *2 acyl side, *3 side chain or, on linkers, in order; H or OH if unused. Where a SMILES comes first, the peptide text is derived from it. Bridges are numbered along the chain shown (N, C = ends). Roman numbers before positions name the chains, in order. [ ]: non-standard residue; d: D form. The star is where a group is joined. ξ: configuration not given here. TATA = O=C(CC[*:1])N1CN(C(=O)CC[*:2])CN(C(=O)CC[*:3])C1; Dolaproine = CO[C@@H]([C@@H]1CCCN1)[C@@H](C)C(=O)O; X1 = CC[C@H](C)C(C(CC(=O)[*:2])OC)N(C)[*:1]; 1Nal = N[C@@H](Cc1cccc2ccccc12)C(=O)O; X3 = O=C(CCCC(=O)[*:2])NCCC(=O)[*:1]; PABC = O=C(OCc1ccc(N[*:1])cc1)[*:2]; Hyp = O=C(O)[C@@H]1C[C@@H](O)CN1; hArg = N=C(N)NCCCC[C@H](N)C(=O)O; Cit = NC(=O)NCCC[C@H](N)C(=O)O; X2 = CC(N*)[C@@H](O)c1ccccc1; ξNMeV = CNC(C(=O)O)C(C)C; ξV = CC(C)C(N)C(=O)O; Sar = CNCC(=O)O

Tests used:
MDA-MB-468 xenograft [1] = assay: Example 9.9: in vivo efficacy of BCY8245 alone or with BCY8234 in MDA-MB-468 xenograft (large tumors) in Balb/c nude mice; design: species or system Mus Musculus
MDA-MB-468 xenograft [2] = assay: Example 9.4: in vivo efficacy in MDA-MB-468 xenograft in Balb/c nude mice; conditions: for TGI / Tumor volume (TV) / T/C: day 21; for T/C: treated/control group average tumor volume; for Tumor volume trace over time (Day 23 to day 42): dosing suspended from day 21
Protocol: The major endpoint was to see if the tumor growth could be delayed or mice could be cured. Tumor volume was measured three times weekly in two dimensions using a caliper, and the volume was expressed in mm^3 using the formula: V=0.5 a×b^2 where a and b are the long and short diameters of the tumor, respectively. The tumor size was then used for calculations of T/C value. The T/C value (in percent) is an indication of antitumor effectiveness; T and C are the mean volumes of the treated and control groups, respectively, on a given day. TGI was calculated for each group using the formula: TGI (%)=[1−(Ti−T0)/(Vi−V0)]×100; Ti is the average tumor volume of a treatment group on a given day, T0 is the average tumor volume of the treatment group on the day of treatment start, Vi is the average tumor volume of the vehicle control group on the same day with Ti, and V0 is the average tumor volume of the vehicle group on the day of treatment start.
A one-way ANOVA was performed to compare tumor volume among groups, and when a significant F-statistics (a ratio of treatment variance to the error variance) was obtained, comparisons between groups were carried out with Games-Howell test. All data were analyzed using GraphPad Prism 5.0. P<0.05 was considered to be statistically significant.
• Species: Mus Musculus • Strain: Balb/c nude • Age: 6-8 weeks • Sex: female • Body weight: 18-22 g • Number of animals: 41 mice plus spare 3.1.2.
The tumor cells were maintained in Leibovitz's L-15 medium supplemented with 10% heat inactivated fetal bovine serum at 37° C. in an atmosphere of 5% CO2 in air. The tumor cells were routinely subcultured twice weekly. The cells growing in an exponential growth phase were harvested and counted for tumor inoculation.
41 animals were randomized when the average tumor volume reached 196 mm^3.

MDA-MB-468 xenograft [3] = assay: Example 9.8: in vivo efficacy of BCY8245, BCY8781 and BCY8245 with BCY8234 in MDA-MB-468 xenograft in Balb/c nude mice; design: species or system Mus Musculus; conditions: for tumor relapse (in words): following monitoring schedule
MDA-MB-468 cell line = assay: Example 11: HCS assay, Nectin-4 BDC binding study; format: cell-based
Protocol: HCS assay was used in Nectin-4 BDC binding study. Cells were incubated with test agent and then washed. Detection was by a fluorescent antibody to MMAE.

LU-01-0007 PDX = assay: Example 12: in vivo efficacy in LU-01-0007 PDX model of lung cancer; design: species or system Mus Musculus
Protocol: Animals were checked daily for any effects of tumor growth and treatments on normal behavior such as mobility, food and water consumption (by looking only), body weight gain/loss, eye/hair matting and any other abnormal effect as stated in the protocol. Death and observed clinical signs were recorded on the basis of the numbers of animals within each subset.

[4] = 1 mg/kg qw and 3 mg/kg qw in combination with BCY8234 300 mg/kg qw, day 21

CC[C@H](C)C(C(CC(=O)N1CCC[C@H]1[C@H](OC)[C@@H](C)C(=O)NC(C)[C@@H](O)c1ccccc1)OC)N(C)C(=O)[C@@H](NC(=O)C(C(C)C)N(C)C(=O)OCc1ccc(NC(=O)[C@H](CCCNC(N)=O)NC(=O)C(NC(=O)CCCC(=O)NCCC(=O)N(C)CC(=O)N(C)CC(=O)N(C)CC(=O)N(C)CC(=O)N(C)CC(=O)N(C)CC(=O)N(C)CC(=O)N(C)CC(=O)N(C)CC(=O)N(C)CC(=O)N[C@H]2CSCCC(=O)N3CN4CN(C3)C(=O)CCSC[C@H](NC(=O)[C@@H](CC(=O)O)NC(=O)[C@H](Cc3cccc5ccccc35)NC(=O)[C@@H]3CCCN3C2=O)C(=O)N[C@@H](CCSC)C(=O)N[C@@H](CCCCNC(=N)N)C(=O)N[C@@H](CC(=O)O)C(=O)N[C@@H](Cc2c[nH]c3ccccc23)C(=O)N[C@@H](CO)C(=O)N[C@@H]([C@@H](C)O)C(=O)N2CCC[C@H]2C(=O)N2C[C@H](O)C[C@H]2C(=O)N[C@@H](Cc2c[nH]c3ccccc23)C(=O)N[C@H](C(N)=O)CSCCC4=O)C(C)C)cc1)C(C)C (stereo partly drawn) [BCY8245, MMAE-PABC-Cit-Val-Glutaryl-BCY8234] (I: [Sar][Sar][Sar][Sar][Sar][Sar][Sar][Sar][Sar][Sar]CP[1Nal][dD]CM[hArg]DWSTP[Hyp]WC-NH2 / II: [ξV][Cit][PABC][ξNMeV]V[X1][Dolaproine]-X2; linker I:11-I:15-I:25 via TATA; linker I:N-II:N via X3)
Tumor volume (MDA-MB-468 xenograft [1]; Group1, Vehicle, dosed with 5 mpk BCY8245 on PG-D28, day 37): 237 ± 36 mm^3
Tumor volume (MDA-MB-468 xenograft [1]; Group1, Vehicle, dosed with 5 mpk BCY8245 on PG-D28, day 40): 148 ± 33 mm^3
Tumor volume (MDA-MB-468 xenograft [1]; Group1, Vehicle, dosed with 5 mpk BCY8245 on PG-D28, day 42): 142 ± 33 mm^3
Tumor volume (MDA-MB-468 xenograft [1]; Group1, Vehicle, dosed with 5 mpk BCY8245 on PG-D28, day 44): 132 ± 69 mm^3
Tumor volume (MDA-MB-468 xenograft [1]; Group1, Vehicle, dosed with 5 mpk BCY8245 on PG-D28, day 48): 146 ± 100 mm^3
Tumor volume (MDA-MB-468 xenograft [1]; Group1, Vehicle, dosed with 5 mpk BCY8245 on PG-D28, day 51): 171 ± 122 mm^3
Tumor volume (MDA-MB-468 xenograft [1]; Group1, Vehicle, dosed with 5 mpk BCY8245 on PG-D28, day 55): 227 ± 166 mm^3
Tumor volume (MDA-MB-468 xenograft [1]; Group1, Vehicle, dosed with 5 mpk BCY8245 on PG-D28, day 56): 264 ± 182 mm^3
Tumor volume (MDA-MB-468 xenograft [1]; Group1, Vehicle, dosed with 5 mpk BCY8245 on PG-D28, day 62): 288 ± 206 mm^3
Tumor volume (MDA-MB-468 xenograft [1]; Group 2, 1 mpk, change in 5 mpk on PG-D28, day 30): 351 ± 42 mm^3
Tumor volume (MDA-MB-468 xenograft [1]; Group 2, 1 mpk, change in 5 mpk on PG-D28, day 33): 213 ± 29 mm^3
Tumor volume (MDA-MB-468 xenograft [1]; Group 2, 1 mpk, change in 5 mpk on PG-D28, day 35): 151 ± 18 mm^3
Tumor volume (MDA-MB-468 xenograft [1]; Group 2, 1 mpk, change in 5 mpk on PG-D28, day 37): 98 ± 16 mm^3
Tumor volume (MDA-MB-468 xenograft [1]; Group 2, 1 mpk, change in 5 mpk on PG-D28, day 40): 89 ± 17 mm^3
Tumor volume (MDA-MB-468 xenograft [1]; Group 2, 1 mpk, change in 5 mpk on PG-D28, day 42): 95 ± 16 mm^3
Tumor volume (MDA-MB-468 xenograft [1]; Group 2, 1 mpk, change in 5 mpk on PG-D28, day 44): 103 ± 20 mm^3
Tumor volume (MDA-MB-468 xenograft [1]; Group 2, 1 mpk, change in 5 mpk on PG-D28, day 48): 106 ± 21 mm^3
Tumor volume (MDA-MB-468 xenograft [1]; Group 2, 1 mpk, change in 5 mpk on PG-D28, day 51): 103 ± 21 mm^3
Tumor volume (MDA-MB-468 xenograft [1]; Group 2, 1 mpk, change in 5 mpk on PG-D28, day 55): 104 ± 20 mm^3
Tumor volume (MDA-MB-468 xenograft [1]; Group 2, 1 mpk, change in 5 mpk on PG-D28, day 56): 120 ± 23 mm^3
Tumor volume (MDA-MB-468 xenograft [1]; Group3, 3 mpk, qw, day 30): 44 ± 18 mm^3
Tumor volume (MDA-MB-468 xenograft [1]; Group3, 3 mpk, qw, day 33): 43 ± 20 mm^3
Tumor volume (MDA-MB-468 xenograft [1]; Group3, 3 mpk, qw, day 35): 44 ± 20 mm^3
Tumor volume (MDA-MB-468 xenograft [1]; Group3, 3 mpk, qw, day 37): 50 ± 24 mm^3
Tumor volume (MDA-MB-468 xenograft [1]; Group3, 3 mpk, qw, day 40): 55 ± 29 mm^3
Tumor volume (MDA-MB-468 xenograft [1]; Group3, 3 mpk, qw, day 42): 66 ± 32 mm^3
Tumor volume (MDA-MB-468 xenograft [1]; Group3, 3 mpk, qw, day 44): 71 ± 33 mm^3
Tumor volume (MDA-MB-468 xenograft [1]; Group3, 3 mpk, qw, day 48): 80 ± 36 mm^3
Tumor volume (MDA-MB-468 xenograft [1]; Group3, 3 mpk, qw, day 51): 91 ± 43 mm^3
Tumor volume (MDA-MB-468 xenograft [1]; Group3, 3 mpk, qw, day 55): 108 ± 53 mm^3
Tumor volume (MDA-MB-468 xenograft [1]; Group3, 3 mpk, qw, day 56): 125 ± 58 mm^3
tumor response (in words) (MDA-MB-468 xenograft [1]; former vehicle group and group 2, 5 mg/kg on PG-D28, following 3 weeks): effective tumor regression
TGI (MDA-MB-468 xenograft [2]; 3 mg/kg biw): 169.8%
Tumor volume (TV) (MDA-MB-468 xenograft [2]; 3 mg/kg biw): 22 mm^3
TGI (MDA-MB-468 xenograft [2]; 3 mg/kg qw): 144.2%
Tumor volume (TV) (MDA-MB-468 xenograft [2]; 3 mg/kg qw): 85 mm^3
TGI (MDA-MB-468 xenograft [2]; 5 mg/kg qw): 168.4%
Tumor volume (TV) (MDA-MB-468 xenograft [2]; 5 mg/kg qw): 29 mm^3
TGI (MDA-MB-468 xenograft [2]; 3 mpk, biw, iv): 169.8%
T/C (MDA-MB-468 xenograft [2]; 3 mpk, biw, iv): 4.9%
TGI (MDA-MB-468 xenograft [2]; 3 mpk, qw, iv): 144.2%
T/C (MDA-MB-468 xenograft [2]; 3 mpk, qw, iv): 18.9%
Tumor volume trace over time (Day 23 to day 42) (MDA-MB-468 xenograft [2]; 5 mpk, qw, iv, day 23 after the start of treatment): 35 ± 5 mm^3
Tumor volume trace over time (Day 23 to day 42) (MDA-MB-468 xenograft [2]; 5 mpk, qw, iv, day 25 after the start of treatment): 48 ± 5 mm^3
Tumor volume trace over time (Day 23 to day 42) (MDA-MB-468 xenograft [2]; 5 mpk, qw, iv, day 28 after the start of treatment): 37 ± 7 mm^3
Tumor volume trace over time (Day 23 to day 42) (MDA-MB-468 xenograft [2]; 5 mpk, qw, iv, day 32 after the start of treatment): 28 ± 6 mm^3
Tumor volume trace over time (Day 23 to day 42) (MDA-MB-468 xenograft [2]; 5 mpk, qw, iv, day 35 after the start of treatment): 24 ± 4 mm^3
Tumor volume trace over time (Day 23 to day 42) (MDA-MB-468 xenograft [2]; 5 mpk, qw, iv, day 39 after the start of treatment): 28 ± 6 mm^3
Tumor volume trace over time (Day 23 to day 42) (MDA-MB-468 xenograft [2]; 5 mpk, qw, iv, day 42 after the start of treatment): 26 ± 6 mm^3
TGI (MDA-MB-468 xenograft [2]; 5 mpk, qw, iv): 168.4%
T/C (MDA-MB-468 xenograft [2]; 5 mpk, qw, iv): 6.6%
tumor response (in words) (MDA-MB-468 xenograft [2]; mouse, in vivo): causes regression of the tumor
anti-tumor activity (in words) (MDA-MB-468 xenograft [3]; 0.3 mg/kg qw or biw): did not show any anti-tumor activity
TGI (MDA-MB-468 xenograft [3]; [4]): 75.4%
Tumor volume (TV) (MDA-MB-468 xenograft [3]; [4]): 242 mm^3
TGI (MDA-MB-468 xenograft [3]; 1 mg/kg qw, day 21): 92.1%
Tumor volume (TV) (MDA-MB-468 xenograft [3]; 1 mg/kg qw, day 21): 204 mm^3
tumor relapse (in words) (MDA-MB-468 xenograft [3]; 1 mg/kg qw): obvious tumor relapse
TGI (MDA-MB-468 xenograft [3]; 3 mg/kg qw, day 21): 164.9%
Tumor volume (TV) (MDA-MB-468 xenograft [3]; 3 mg/kg qw, day 21): 27 mm^3
tumor relapse (in words) (MDA-MB-468 xenograft [3]; 3 mg/kg qw): didn't show any tumor relapse
anti-tumor activity at 3 mg/kg in presence of BCY8234 at 300 mg/kg versus alone (in words) (MDA-MB-468 xenograft [3]; 3 mg/kg with BCY8234 300 mg/kg): antagonized by BCY8234
T/C (MDA-MB-468 xenograft [3]; 0.3 mpk, qw): 71.4%
TGI (MDA-MB-468 xenograft [3]; 0.3 mpk, qw): 52.7%
T/C (MDA-MB-468 xenograft [3]; 1 mpk, qw): 48.6%
TGI (MDA-MB-468 xenograft [3]; 1 mpk, qw): 92.1%
T/C (MDA-MB-468 xenograft [3]; 3 mpk, qw): 6.5%
TGI (MDA-MB-468 xenograft [3]; 3 mpk, qw): 164.9%
tumor response (in words) (MDA-MB-468 xenograft [3]; former vehicle group, single dose of 5 mg/kg on day 32): obvious tumor regression
Bmax (in words) (MDA-MB-468 cell line): lower than for the Nectin-4 ADC
binding affinity on MDA-MB-468 cell line (in words) (MDA-MB-468 cell line): single digit nanomolar affinity
Max fluorescent intensity (MDA-MB-468 cell line; MDA-MB-468 cell line, fluorescent antibody to MMAE): 13.34
Kd (MDA-MB-468 cell line; MDA-MB-468 cell line, historical data, read-out: Historical Kd): 5.18 nM
Kd (MDA-MB-468 cell line; MDA-MB-468 cell line, read-out: Kd): 3.52 nM
retention on the cells (in words) (MDA-MB-468 cell line; detection by a fluorescent antibody to MMAE): retained on the cells
efficacy (in words) (LU-01-0007 PDX; 1 mg/kg qw): stable disease
tumor regrowth (in words) (LU-01-0007 PDX; 3 mg/kg, after dosing ceased, out to 126 days post study start): no tumor regrowth
efficacy (in words) (LU-01-0007 PDX; 3 mg/kg, dosing maintained out to day 56): full regression
